In ChEMBL document CHEMBL4339244, “Clavariopsins C-I, Antifungal Cyclic Depsipeptides from the Aquatic Hyphomycete Clavariopsis aquatica” (J Nat Prod, 2019):
Activity calls are given as the source filed them. The rule behind the calls is not given here.

Assays:
Botrytis cinerea = test: Antifungal activity against Botrytis cinerea assessed as inhibition of microbial growth by measuring minimum inhibitory dose per disc inducing visually distinct inhibition zone between the paper disk and colony front by paper disk based assay; format: functional
Alternaria alternata = test: Antifungal activity against Alternaria alternata assessed as inhibition of microbial growth by measuring minimum inhibitory dose per disc inducing visually distinct inhibition zone between the paper disk and colony front by paper disk based assay; format: functional
HeLa S3 = test: Cytotoxicity in human HeLaS3 cells assessed as reduction in cell viability incubated for 48 hrs by MTT assay; format: functional, cell-based; settings: HeLa S3, 48 h
Pyricularia oryzae = test: Antifungal activity against Magnaporthe oryzae assessed as inhibition of microbial growth by measuring minimum inhibitory dose per disc inducing visually distinct inhibition zone between the paper disk and colony front by paper disk based assay; format: functional, organism-based
Fusarium oxysporum = test: Antifungal activity against Fusarium oxysporum assessed as inhibition of microbial growth by measuring minimum inhibitory dose per disc inducing visually distinct inhibition zone between the paper disk and colony front by paper disk based assay; format: functional, organism-based
Aspergillus niger [1] = test: Induction of hyphal malformation in Aspergillus niger assessed as minimum effective dose per disc results in obvious morphological changes incubated for 16 hrs by phase contrast microscopy; format: functional
[2] = test system: Colletotrichum orbiculare; test: Antifungal activity against Colletotrichum orbiculare assessed as inhibition of microbial growth by measuring minimum inhibitory dose per disc inducing visually distinct inhibition zone between the paper disk and colony front by paper disk based assay; format: functional, organism-based
Aspergillus niger [3] = test: Antifungal activity against Aspergillus niger assessed as inhibition of microbial growth by measuring minimum inhibitory dose per disc inducing visually distinct inhibition zone between the paper disk and colony front by paper disk based assay; format: functional, organism-based

Row | SMILES | MID (Botrytis cinerea) [µg] | MID (Alternaria alternata) [µg] | IC50 (HeLa S3) [µM] | inhibition (Pyricularia oryzae) | inhibition (Fusarium oxysporum) | MED (Aspergillus niger [1]) [µg] | inhibition [2] | inhibition (Aspergillus niger [3])
1 | CC[C@H](C)[C@@H]1NC(=O)[C@H]([C@@H](C)CC)N(C)C(=O)[C@H](CC(=O)O)N(C)C(=O)[C@H](C(C)C)NC(=O)[C@H](C(C)C)N(C)C(=O)[C@@H]2CCCCN2C(=O)[C@@H](C(C)C)OC(=O)[C@H](Cc2ccc(OC)cc2)NC(=O)[C@H](C(C)C)N(C)C(=O)CNC1=O | 0.01 to 0.3 | 0.01 | > 10 | Active | Active | 0.3 | Active | Active
2 | CC[C@H](C)[C@H]1C(=O)NCC(=O)N(C)[C@@H](C(C)C)C(=O)N[C@@H](Cc2ccc(OC)cc2)C(=O)O[C@H](C(C)C)C(=O)N2CCCC[C@H]2C(=O)N(C)[C@@H](C(C)C)C(=O)N[C@@H](C(C)C)C(=O)N(C)[C@@H](CC(=O)O)C(=O)N(C)[C@@H](C(C)C)C(=O)N1C | 0.01 to 0.3 | 0.01 | > 10 | Active | Active | 0.3 | Active | Active
3 | CC[C@H](C)[C@H]1C(=O)NCC(=O)N(C)[C@@H](C(C)C)C(=O)N[C@@H](Cc2ccc(OC)cc2)C(=O)O[C@H](C(C)C)C(=O)N2CCCC[C@H]2C(=O)N(C)[C@@H](C(C)C)C(=O)N[C@@H](C(C)C)C(=O)N(C)[C@@H](CC(=O)O)C(=O)N(C)[C@@H]([C@@H](C)CC)C(=O)N1C | 0.01 to 0.3 | 0.01 | > 10 | Active | Active | 0.3 | Active | Active
4 | CC[C@H](C)[C@H]1C(=O)NCC(=O)N(C)[C@@H](C(C)C)C(=O)N[C@@H](Cc2ccc(OC)cc2)C(=O)O[C@H](C(C)C)C(=O)N2CCCC[C@H]2C(=O)N(C)[C@@H](C(C)C)C(=O)N[C@@H](CC(C)C)C(=O)N(C)[C@@H](CC(=O)O)C(=O)N(C)[C@@H]([C@@H](C)CC)C(=O)N1C | 0.01 to 0.3 | 0.03 to 0.3 | > 10 | Active | Active | 3 | Active | Active
5 | CC[C@H](C)[C@H]1C(=O)N(C)[C@@H](CC(C)C)C(=O)NCC(=O)N(C)[C@@H](C(C)C)C(=O)N[C@@H](Cc2ccc(OC)cc2)C(=O)O[C@H](C(C)C)C(=O)N2CCCC[C@H]2C(=O)N(C)[C@@H](C(C)C)C(=O)N[C@@H](C(C)C)C(=O)N(C)[C@@H](CC(=O)O)C(=O)N1C | 0.01 to 0.3 | 0.03 to 0.3 | > 10 | Active | Active | 0.3 | Active | Active
6 | CC[C@H](C)[C@H]1C(=O)NCC(=O)N(C)[C@@H](C(C)C)C(=O)N[C@@H](Cc2ccc(OC)cc2)C(=O)O[C@H](C(C)C)C(=O)N2CCCC[C@H]2C(=O)N(C)[C@@H](C(C)C)C(=O)N[C@@H](C(C)C)C(=O)N(C)[C@@H](CC(=O)O)C(=O)N(C)[C@@H](CC(C)C)C(=O)N1C | 0.01 to 0.3 | 0.03 to 0.3 | > 10 | Active | Active | 0.3 | Active | Active
7 | CC[C@H](C)[C@H]1C(=O)N(C)[C@@H](C(C)C)C(=O)NCC(=O)N(C)[C@@H](C(C)C)C(=O)N[C@@H](Cc2ccc(OC)cc2)C(=O)O[C@H](C(C)C)C(=O)N2CCCC[C@H]2C(=O)N(C)[C@@H](C(C)C)C(=O)N[C@@H](C(C)C)C(=O)N(C)[C@@H](CC(=O)O)C(=O)N1C | 0.01 to 0.3 | 0.03 to 0.3 | > 10 | Active | Active | 0.3 | Active | Active
8 | CC[C@H](C)[C@H]1C(=O)NCC(=O)N(C)[C@@H](C(C)C)C(=O)N[C@@H](Cc2ccc(OC)cc2)C(=O)O[C@H](C(C)C)C(=O)N2CCC[C@H]2C(=O)N(C)[C@@H](C(C)C)C(=O)N[C@@H](C(C)C)C(=O)N(C)[C@@H](CC(=O)O)C(=O)N(C)[C@@H]([C@@H](C)CC)C(=O)N1C | 0.01 to 0.3 | 0.03 to 0.3 | > 10 | Active | Active | 0.3 | Active | Active
9 | CC[C@H](C)[C@H]1C(=O)NCC(=O)N(C)[C@@H](C(C)C)C(=O)N[C@@H](Cc2ccc(OC)cc2)C(=O)O[C@H](C(C)C)C(=O)N2CCCC[C@H]2C(=O)N[C@@H](C(C)C)C(=O)N[C@@H](C(C)C)C(=O)N(C)[C@@H](CC(=O)O)C(=O)N(C)[C@@H]([C@@H](C)CC)C(=O)N1C | 0.01 to 0.3 | 0.03 to 0.3 | > 10 | Active | Active | 3 | Active | Active
